Reference: article PMC10527014 (Antiviral research, 2023)
“Also recorded” adds a separate entry of the source. Where two headings read alike, the source gives them in different places.

Experiments:
[1] = test system: Coxsackievirus B3-Woodruff (CVB3); format: cell-based; details: read-out: Inhibitory concentration EC50 against CVB3-Woodruff; HeLa cells; infecting at low MOI 0.1 PFU / cell and adding drug after infection is established; ± SEM
Coxsackie B3 HA 201933 [2] = assay: Virus yield reduction assay, Coxsackie B3 HA 201933; format: cell-based; details: read-out: 90% Effective concentration EC90; Coxsackie B3 HA 201933, Vero 76, virus yield reduction
[3] = test system: ma-EV-D68 US/MO/14-18949 (Mouse adapted); assay: CPE reduction assay, ma-EV-D68 US/MO/14-18949; format: cell-based; details: read-out: 50% Effective concentration EC50, RD
EV-71 Tainan/4643/98 = assay: Virus yield reduction assay, EV-71 Tainan/4643/98; format: cell-based; details: read-out: 90% Effective concentration EC90; EV-71 Tainan/4643/98, Vero 76, virus yield reduction
Polio virus 1 Mahoney = format: cell-based; details: read-out: 90% Effective concentration EC90, Vero 76, virus yield reduction
[4] = test system: Influenza H1N1 California/07/2009; assay: CPE reduction assay, Influenza H1N1 California/07/2009; format: cell-based; details: read-out: 50% Effective concentration EC50, Influenza H1N1 California/07/2009, MDCK
RD = assay: Cytotoxicity; format: cell-based, human
CYP2C9 = CYP2C9 (Homo sapiens, UniProt P11712); assay: CYP inhibition, CYP2C9; format: in vitro ADME; details: read-out: CYP inhibition
Sequence of CYP2C9 (P11712 whole entry): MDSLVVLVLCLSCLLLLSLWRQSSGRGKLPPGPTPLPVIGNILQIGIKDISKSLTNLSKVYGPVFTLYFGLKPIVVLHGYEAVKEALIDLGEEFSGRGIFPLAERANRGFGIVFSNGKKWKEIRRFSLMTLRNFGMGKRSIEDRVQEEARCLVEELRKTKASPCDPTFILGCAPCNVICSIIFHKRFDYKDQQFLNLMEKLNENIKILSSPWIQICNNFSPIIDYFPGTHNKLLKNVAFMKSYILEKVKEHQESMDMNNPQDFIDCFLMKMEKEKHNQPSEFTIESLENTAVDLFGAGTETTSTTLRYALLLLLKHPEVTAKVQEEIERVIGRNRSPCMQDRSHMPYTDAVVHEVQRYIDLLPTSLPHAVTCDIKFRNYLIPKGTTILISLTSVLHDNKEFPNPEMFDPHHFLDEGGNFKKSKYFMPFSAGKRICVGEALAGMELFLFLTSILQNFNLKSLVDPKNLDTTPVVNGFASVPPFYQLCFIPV

[5] = Mouse liver microsomes stability; format: in vitro ADME
Caco-2 = Caco-2 permeability; format: in vitro ADME
[6] = target: T1, pregnane X-receptor (PXR) (Homo sapiens, UniProt O75469); assay: PXR agonist activity
T1 sequence (O75469 1-434): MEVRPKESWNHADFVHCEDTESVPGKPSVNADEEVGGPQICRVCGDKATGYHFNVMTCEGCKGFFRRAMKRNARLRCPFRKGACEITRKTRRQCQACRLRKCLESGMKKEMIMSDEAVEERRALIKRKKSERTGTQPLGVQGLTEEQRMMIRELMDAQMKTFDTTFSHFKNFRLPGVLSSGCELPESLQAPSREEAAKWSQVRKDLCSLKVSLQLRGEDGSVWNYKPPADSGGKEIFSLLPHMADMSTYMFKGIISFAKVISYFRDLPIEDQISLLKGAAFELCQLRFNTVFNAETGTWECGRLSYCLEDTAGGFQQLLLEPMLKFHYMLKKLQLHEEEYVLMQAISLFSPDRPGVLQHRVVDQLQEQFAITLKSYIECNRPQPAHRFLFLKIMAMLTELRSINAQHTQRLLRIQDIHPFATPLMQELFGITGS

mouse-adapted CVB5 = assay: Mouse model of CVB5-induced pancreatitis; format: in vivo, BALB/c mice
Coxsackie B3 HA 201933 [7] = details: read-out: 50% Effective concentration EC50; Coxsackie B3 HA 201933, Vero 76, CPE
Coxsackie B3 Nancy = details: read-out: 50% Effective concentration EC50, Vero 76, CPE

Question: With `Cc1cc(-c2noc(C(F)(F)F)n2)ccc1OCCCc1cc(C(=O)N(C)C)no1` [compound 11526092, 3-(3-methyl-4-(3-(3-N,N-dimethylcarbamoyl-isoxazol-5-yl)propoxy)phenyl)-5-trifluoromethyl-1,2,4-oxadiazole] as the compound, how does the EC50 [1] read?
Answer: The EC50 was 0.016 µM.

Question: And the EC90 (Coxsackie B3 HA 201933 [2])?
Answer: The EC90 was 7.78 µM.

Question: What about the EC50 [3] of the same compound?
Answer: Its EC50 is 0.028 µM.

Question: What about the EC90 (EV-71 Tainan/4643/98) of the same compound?
Answer: Its EC90 is 2.45 µM.

Question: And the EC90 (Polio virus 1 Mahoney)?
Answer: Its EC90 is 0.52 µM.

Question: And the EC50 [4]?
Answer: Its EC50 is 25.9 µM.

Question: What about the CC50 (RD; read-out: 50% Cytotoxic concentration CC50, line of EV-D68 US/KY/14-18953) of the same compound?
Answer: Its CC50 is 2.4 µM.

Question: What about the CC50 (RD; read-out: 50% Cytotoxic concentration CC50, line of EV-D68 US/MO/14-18949) of the same compound?
Answer: The CC50 was 28 µM.

Question: What about the CC50 (RD; read-out: 50% Cytotoxic concentration CC50, line of Human Echovirus-11) of the same compound?
Answer: The CC50 was 18 µM.

Question: And the CC50 (RD; read-out: 50% Cytotoxic concentration CC50, line of Human Echovirus-30)?
Answer: The CC50 was 11 µM.

Question: What about the IC50 (CYP2C9) of the same compound?
Answer: The IC50 was 5 µM.

Question: What about the “Mouse liver microsomes stability (in words)” value [5] of the same compound?
Answer: The value was “poor mouse microsomal stability; also recorded: unstable”.

Question: And the “Mouse liver microsomes CLint” value ([5]; mouse)?
Answer: Its value is 70.6 μL/min/mg protein.

Question: What about the “Mouse liver microsomes t1/2” value ([5]; mouse) of the same compound?
Answer: The value was 19.6 min.

Question: What about the “Caco-2 Efflux ratio” value (Caco-2) of the same compound?
Answer: The value was 3.5.

Question: What about the “Caco-2 Papp A-B” value (Caco-2) of the same compound?
Answer: The value was 880 ×10⁻⁶ cm/s.

Question: What about the “Caco-2 Papp B-A” value (Caco-2) of the same compound?
Answer: The value was 3090 ×10⁻⁶ cm/s.

Question: What about the “P-gp substrate (in words, from Caco-2 data)” value (Caco-2) of the same compound?
Answer: The value was “likely a P-gp substrate”.

Question: And the “PXR agonism (in words)” value [6]?
Answer: The value was “neither 11526092 nor pleconaril is an agonist”.

Question: And the EC50 ([6]; read-out: PXR EC50)?
Answer: The EC50 was > 100 µM.

Question: What about the “Relative fold gene expression in the pancreas (qPCR)” value (mouse-adapted CVB5; 100 mg/kg per day, Fig. 5B) of the same compound?
Answer: The value was “statistically significant (P≤0.05) decrease”.

Question: What about the “Histology of pancreatic tissue” value (mouse-adapted CVB5; CVB5-infected mice, Fig. S20) of the same compound?
Answer: Its value is “no signs of tissue damage”.

Question: And the EC50 (Coxsackie B3 HA 201933 [7])?
Answer: Its EC50 is 1.01 µM.

Question: And the EC50 (Coxsackie B3 Nancy)?
Answer: Its EC50 is 1.27 µM.

Question: And the CC50 (Vero 76)?
Answer: Its CC50 is 10.8 µM.

Question: And the CC50 (Vero 76; read-out: 50% Cytotoxic concentration CC50, Vero 76, line of Coxsackie B3 HA 201933)?
Answer: Its CC50 is 8 µM.

Question: And the CC50 (Vero 76; read-out: 50% Cytotoxic concentration CC50, Vero 76, line of Coxsackie B3 Nancy)?
Answer: The CC50 was 8 µM.

Question: And the CC50 (Vero 76; read-out: 50% Cytotoxic concentration CC50, Vero 76, line of EV-71)?
Answer: The CC50 was 8.25 µM.

Question: And the CC50 (Vero 76; read-out: 50% Cytotoxic concentration CC50, Vero 76, line of SARS-CoV-2)?
Answer: Its CC50 is 7.54 µM.
